In brackets after ≈: the same amount, converted by molar mass.
Key:
[1] = Solubility at pH 7.4; assay type: physicochemical; details: buffer
in vitro [2] = details: human, liver microsomes
[3] = Oral bioavailability in rat at 10 mg/kg; assay type: ADME, organism-based; details: in vivo
in vivo [4] = details: rat
in vivo [5] = details: rat, plasma
in vivo [6] = details: rat, iv, 1 mg/kg
in vitro [7] = details: rat, liver microsomes

Compound: C[C@@H](N)[C@H]1CC[C@H](C(=O)Nc2ccncc2)CC1.Cl.Cl
- solubility [1]: > 32 µg/mL
- half-life (in vitro [2]): > 90 min

Compound: CN(C)C(C(=O)Nc1cc2cc[nH]c(=O)c2cc1Cl)c1ccccc1 (stereo not drawn)
- solubility [1]: 6 µg/mL (≈ 16.9 µM)
- bioavailability [3]: 2%
- AUC (in vivo [4]): 30 ng·h/mL

Compound: O=C(Nc1cc2cc[nH]c(=O)c2cc1Cl)C(NC1CC1)c1ccccc1 (stereo not drawn)
- solubility [1]: 16 µg/mL (≈ 43.5 µM)
- half-life (in vivo [5]): 162 min
- bioavailability [3]: 64%
- clearance (in vivo [6]): 82 mL/min/kg
- AUC (in vivo [4]): 1290 ng·h/mL
- half-life (in vitro [2]): 21 min
- half-life (in vitro [7]): 7 min

Compound: O=S(=O)(c1cccc2cnccc12)N1CCCNCC1 [FASUDIL]
- solubility [1]: > 60 µg/mL

Source: ChEMBL document CHEMBL1155525, “Substituted 2H-isoquinolin-1-one as potent Rho-Kinase inhibitors. Part 1: Hit-to-lead account” (Bioorg Med Chem Lett, 2010)
